Target: cAMP and cAMP-inhibited cGMP 3',5'-cyclic phosphodiesterase 10A (Homo sapiens, UniProt Q9Y233)
Test: Diaxonhit Phosphodiesterase Assay: The phosphodiesterase assay was developed using the LANCE cAMP kit (PerkinElmer). The assay buffer contained HBSS with 5 mM HEPES, 0.1% BSA, and 1.5 mM MgCl2, pH 7.4. PDE10A (BPS Bioscience) was used at 200 pg/well (with a specific activity of 3200 pmole/min/ug with assay conditions: 10 mM Tris-HCl, pH 7.4, 10 mM MgCl2, 1 mM MnCl2, 200 uM cAMP, 2.5 kU 5' nucleotidase, 37° C., 20 min) and PDE4D3 (BPS Bioscience) was used at 100 pg/well (with a specific activity of 32713 pmole/min/ug with assay conditions: 10 mM Tris-HCl, pH 7.4, 10 mM MgCl2, 1 mM MnCl2, 200 uM cAMP, 2.5 kU 5' nucleotidase, 37° C., 20 min). The Biotin-cAMP tracer, supplied in 10 mmol/L Tris-HCl buffered (pH 8.0) salt solution with 1 mmol/L ethylenediaminetetraacetic acid (EDTA), 0.1% bovine serum albumin (BSA), and 0.05% sodium azide, is used at a dilution of 1/375. The assay detection mixture contained the LANCE Eu-W8044 labeled streptavidin 1/2250 (supplied in 50 mmol/L Tris-HCl buffer).

Chain of cAMP and cAMP-inhibited cGMP 3',5'-cyclic phosphodiesterase 10A (Q9Y233 whole entry): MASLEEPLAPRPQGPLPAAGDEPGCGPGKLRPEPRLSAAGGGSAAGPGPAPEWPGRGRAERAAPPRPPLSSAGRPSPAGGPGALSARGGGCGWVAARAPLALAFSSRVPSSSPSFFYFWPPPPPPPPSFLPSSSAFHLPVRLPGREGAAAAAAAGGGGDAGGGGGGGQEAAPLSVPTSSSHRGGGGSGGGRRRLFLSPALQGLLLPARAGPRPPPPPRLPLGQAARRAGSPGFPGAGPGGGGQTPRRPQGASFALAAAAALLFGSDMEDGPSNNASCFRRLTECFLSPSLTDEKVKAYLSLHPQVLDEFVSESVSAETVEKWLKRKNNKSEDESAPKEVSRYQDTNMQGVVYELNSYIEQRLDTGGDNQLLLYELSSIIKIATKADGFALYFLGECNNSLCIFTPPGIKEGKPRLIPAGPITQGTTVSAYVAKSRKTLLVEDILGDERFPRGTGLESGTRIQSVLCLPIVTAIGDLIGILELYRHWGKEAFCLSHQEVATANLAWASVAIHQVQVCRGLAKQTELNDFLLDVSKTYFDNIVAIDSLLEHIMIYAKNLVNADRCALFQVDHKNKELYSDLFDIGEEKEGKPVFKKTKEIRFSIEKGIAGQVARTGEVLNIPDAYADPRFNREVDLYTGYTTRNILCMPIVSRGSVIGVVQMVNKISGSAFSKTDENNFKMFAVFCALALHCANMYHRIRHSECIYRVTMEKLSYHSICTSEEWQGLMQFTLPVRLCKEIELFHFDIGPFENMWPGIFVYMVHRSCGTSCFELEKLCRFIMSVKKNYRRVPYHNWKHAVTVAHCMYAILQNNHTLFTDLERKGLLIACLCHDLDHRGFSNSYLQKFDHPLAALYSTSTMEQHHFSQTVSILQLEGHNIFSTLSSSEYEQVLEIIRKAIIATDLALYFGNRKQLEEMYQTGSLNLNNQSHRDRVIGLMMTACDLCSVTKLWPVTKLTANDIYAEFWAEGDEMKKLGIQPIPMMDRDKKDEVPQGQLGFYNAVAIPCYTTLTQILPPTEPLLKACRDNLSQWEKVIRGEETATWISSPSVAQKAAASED

COCc1ncc(Cc2ccc3cccc(NS(N)(=O)=O)c3n2)c2cc(OC)c(OC)cc12
IC50: 0.18 nM

COc1cc2cncc(Cc3cnc4ccc(O)cc4c3)c2cc1OC
IC50: 2.9 nM

COc1cc2cncc(Cc3ccc4[nH]c(=O)oc4c3)c2cc1OC
IC50: 34 nM

COc1cc2cncc(Cc3ccc4cccc(NS(N)(=O)=O)c4n3)c2cc1OC
IC50: 0.42 nM

CCCc1ncc(Cc2cnc3ccc(O)cc3c2)c2cc(OC)c(OC)cc12
IC50: 9.4 nM

CCCc1ncc(Cc2ccc3c(C(F)(F)F)ccc(O)c3n2)c2cc(OC)c(OC)cc12
IC50: 491 nM

CCCc1ncc(Cc2ccc3cccc(OCc4nnn[nH]4)c3n2)c2cc(OC)c(OC)cc12
IC50: 4.7 nM

COc1cc2cncc(Cc3cnc4ccc(OCC(N)=O)cc4c3)c2cc1OC
IC50: 2.5 nM

CCCc1ncc(Cc2ccc3cccc(NC(=O)COC(C)=O)c3n2)c2cc(OC)c(OC)cc12
IC50: 204 nM

CCCc1ncc(Cc2ccc3cccc(OCC(=O)NC)c3n2)c2cc(OC)c(OC)cc12
IC50: 51 nM

COc1cc2cncc(Cc3coc4c(Cl)cc(Cl)cc4c3=O)c2cc1OC
IC50: 27 nM

COc1cc2c(Cc3ccc4cccc(O)c4n3)cnc(C)c2cc1OC
IC50: 42 nM

CCn1c(=O)oc2ccc(Cc3cncc4cc(OC)c(OC)cc34)cc21
IC50: 7.8 nM

CCCc1ncc(Cc2ccc3cccc(OCCNC(C)=O)c3n2)c2cc(OC)c(OC)cc12
IC50: 58 nM

COc1cc2cncc(Cc3ccc4oc(-c5ccc(N)cc5)nc4c3)c2cc1OC
IC50: 49 nM

CCc1ncc(Cc2ccc3cccc(OCCO)c3n2)c2cc(OC)c(OC)cc12
IC50: 192 nM

CCc1ncc(Cc2ccc3cccc(OC(C)=O)c3n2)c2cc(OC)c(OC)cc12
IC50: 3110 nM

CCc1ncc(Cc2ccc3cccc(OCc4nnn[nH]4)c3n2)c2cc(OC)c(OC)cc12
IC50: 31 nM

CCCc1ncc(Cc2coc3ccc(C)cc3c2=O)c2cc(OC)c(OC)cc12
IC50: 31 nM

COc1cc2c(Cc3ccc4cccc(O)c4n3)cnc(C3CC3)c2cc1OC
IC50: 151 nM

CCCc1ncc(Cc2coc3ccc(F)cc3c2=O)c2cc(OC)c(OC)cc12
IC50: 54 nM

CCCc1ncc(Cc2ccc3c(C(F)(F)F)ccc(OCC(N)=O)c3n2)c2cc(OC)c(OC)cc12
IC50: 102 nM

CCCc1ncc(Cc2ccc3cccc(OCC(=O)O)c3n2)c2cc(OC)c(OC)cc12
IC50: 4.9 nM

COc1cc2cncc(Cc3ccc4oc(-c5ccc(CO)cc5)nc4c3)c2cc1OC
IC50: 19 nM

COc1cc2c(Cc3ccc4cccc(OCC(N)=O)c4n3)cnc(C)c2cc1OC
IC50: 64 nM

COc1cc2c(Cc3cnc4cc(C)ccc4c3)cnc(C)c2cc1OC
IC50: 7.1 nM

COc1cc2c(Cc3ccc4cccc(NS(N)(=O)=O)c4n3)cnc(C)c2cc1OC
IC50: 0.71 nM

CCc1ncc(Cc2ccc3cccc(OCCC(=O)O)c3n2)c2cc(OC)c(OC)cc12
IC50: 5 nM

COc1cc2cncc(Cc3ccc4oc(-c5cccc(CO)c5)nc4c3)c2cc1OC
IC50: 28 nM

COc1cc2cncc(Cc3ccc4oc(-c5ccccc5CO)nc4c3)c2cc1OC
IC50: 95 nM

COc1cc2cncc(Cc3cnc4ccc(OCC(=O)O)cc4c3)c2cc1OC
IC50: 7.9 nM

COc1cc2c(Cc3ccc4cccc(OCC(N)=O)c4n3)cnc(C3CC3)c2cc1OC
IC50: 67 nM

COc1cc2cncc(Cc3ccc4cccc(N)c4n3)c2cc1OC
IC50: 13 nM

CCCc1ncc(Cc2ccc3cccc(OCCC(=O)O)c3n2)c2cc(OC)c(OC)cc12
IC50: 2.3 nM

CCCc1ncc(Cc2ccc3cccc(OC(C)=O)c3n2)c2cc(OC)c(OC)cc12
IC50: 109 nM

CCc1ncc(Cc2ccc3cccc(OCC(N)=O)c3n2)c2cc(OC)c(OC)cc12
IC50: 20 nM

COc1cc2cncc(Cc3ccc4oc(-c5ccc(C#N)cc5)nc4c3)c2cc1OC
IC50: 148 nM

CCn1c(=O)oc2cc(Cc3cncc4cc(OC)c(OC)cc34)ccc21
IC50: 32 nM

COc1cc2c(Cc3cnc4ccc(O)cc4c3)cnc(C)c2cc1OC
IC50: 18 nM

COc1cc2cncc(Cc3ccc4oc(-c5ccccc5)nc4c3)c2cc1OC
IC50: 189 nM

COc1cc2cnc(C)c(Cc3ccc4cccc(O)c4n3)c2cc1OC
IC50: 41 nM

CCCc1ncc(Cc2ccc3oc(=O)[nH]c3c2)c2cc(OC)c(OC)cc12
IC50: 64 nM

Reference: ChEMBL document CHEMBL3886179, “Substituted 6, 7-dialkoxy-3-isoquinoline derivatives as inhibitors of phosphodiesterase 10 (PDE 10A)” (2015)
